Data reported in patent US4269940A, “Microbiological alkane oxidation process” (priority 1979, dated 1981).
Read-outs that look alike come from different tables or passages of the source.

Assays:
[1] = system: purified secondary alcohol dehydrogenase; test: Substrate and electron acceptor specificity of purified yeast secondary alcohol dehydrogenase; type: biochemical, Pichia sp. NRRL Y-11,328; conditions: for Oxidation by the purified yeast enzyme (in words): examined spectrophotometrically
Protocol: (§1) Large scale cultures of Pichia sp. NRRL Y-11,328 were grown with aeration at 30° C. in a 14-liter New Brunswick f fermentor in a mineral salt medium containing methanol (0.4%, v/v) as the sole carbon source. The cells (200 g., wet weight) were suspended in 50 mm sodium phosphate buffer, pH 7.0, containing 1 mM dithiothreitol (buffer A), and crude extracts were prepared as described previously. To the crude extracts, 18 ml. of protamine sulfate solution [2% solution in 0.1 M tris (hydroxymethyl) aminomethane (tris) base] was added dropwise with continuous stirring. After standing for 30 min., the extracts were centrifuged at 20,000 x g. for 60 min. The supernatant solution was fractioned with solid ammonium sulfate. Extracts were brought to 50% of saturation with respect to ammonium sulfate by addition of 313 g. of the salt per liter of extract. Precipitated proteins was removed by centrifugation, and 137 g. of ammonium sulfate was added per liter of the supernatant liquid to bring it to 70% of saturation. Material precipitating between 50 and 70% of saturation was collected by centrifugation and dissolved in buffer A. This preparation was dialyzed overnight against buffer A, and the dialyzed material was applied to a DEAE-cellulose column (5×40 cm) that had been equilibrated with buffer A. The sample was washed with 200 ml. of buffer A and eluted with 2 liters of buffer A that contained NaCl in a linear gradient running from a concentration of 0 to 0.5 M. Fractions of 15 ml. were collected. Fractions containing secondary alcohol dehydrogenase activity were pooled and were termed DEAE-cellulose eluate. The DEAE-cellulose eluate was concentrated by ammonium sulfate fractionation.
(§2) Secondary alcohol dehydrogenase activity was measured spectrophotometrically at 340 nm with a NAD^+ as an electron acceptor. The reaction mixture, in a total 3.0 ml., contained 50 mM phosphate buffer, pH 8.0, 5μmoles NAD^+, crude extracts, and substrate. The reactions were started by addition of 100 μof 0.1 M substrate and the rate of NAD^+ reduction was measured. Protein concentration was determined by the method of Lowry et al.
The substrate specificity of the purified secondary alcohol dehydrogenase was examined spectrophotometrically.

[2] = system: cell-free particulate fractions derived from the methylotrophic microorganisms; test: Inhibition of conversion of C3-C6 n-alkanes to sec. alcohols by cell-free particulate fractions; type: biochemical; conditions: oxygen and NADH
From the text: The conditions for preparing the cell suspensions or the cell-free particulate fractions from methane-grown methylotroph microorganisms is the same as described above.

[3] = system: purified secondary alcohol dehydrogenase; test: Inhibition of purified yeast secondary alcohol dehydrogenase; type: biochemical, Pichia sp. NRRL Y-11,328; conditions: purified yeast enzyme
Protocol: as §1, §2
Various primary alcohols not oxidized by secondary alcohol dehydrogenase were tested as potential inhibitors of enzyme activity.

[4] = system: cell suspensions of the strains of C1-utilizers tested; test: Production of methyl ketones from secondary alcohols by cell suspensions of C1-utilizers (strains tested); type: cell-based; conditions: for Inhibition of production of 2-butanone from 2-butanol: cell suspensions of the strains tested; for Rate of oxidation of secondary alcohols to methyl ketones: cell suspensions of C1-utilizers
From the text: The substrate specificity for the oxidation of C3 -C6 secondary alcohols by the strains of C1 -utilizers was studied.

[5] = system: P(40) fraction of Methylosinus sp. (CRL-15, NRRL B-11,202); test: Effect of inhibitors on propylene epoxidation and methane hydroxylation by P(40) fraction (Table XI); type: biochemical; conditions: inhibitor 10^-3 M
Protocol: The oxidation of methane and propylene by particulate [(P)40 and (P)80] fractions and soluble [S(80)] fraction was measured at 30° C. by estimating the production of methanol and propylene oxide, respectively. The reaction mixtures contained in 1.0 ml: 150 mM potassium phosphate buffer, pH 7.0 containing 5 mM MgC2, 0.6 ml; 10 μmoles NADH, and cellular fraction.
Reaction mixtures were contained in 10 ml vials at 4° C. Vials were sealed with rubber caps. The gaseous phase in the vials was removed using vacuum and then was replaced with a gas mixture of methane or propylene and oxygen at a 1:1, v/v ratio. Oxidation of other gaseous n-alkanes and n-alkenes was examined as described above. For liquid substrates, 10 μ of substrate was used directly. Vials were then incubated at 30° C. on a rotary shaker at 200 RPM.
The products of epoxidation of n-alkenes and hydroxylation of n-alkanes were assayed by flame ionization gas chromatography using a stainless steel column (12'×1/8") packed with 10% Carbowax 20M on 80/100 Chromosorb W and Porapak Q column. The column temperature was maintained isothermally at 120° C. The carrier gas flow rate was 30 ml/min. of helium. The various products were identified by retention time comparisons and co-chromatography with authentic standards.
It has been reported that the oxidation of methane by cell suspensions of methane-utilizing bacteria was inhibited by various metal-binding or metal-chelating agents (Patel et al., J. Bacteriol. 126: 1017-1019 (1976)). […] (CRL-15, NRRL B-11,202) was examined.

[6] = system: secondary alcohol dehydrogenase (SADH); test: Inhibition of purified secondary alcohol dehydrogenase (SADH); type: biochemical, Pseudomonas sp. ATCC 21439
Protocol: (§3) Secondary alcohol dehydrogenase (SADH) from an obligate methanol utilizer, Pseudomonas sp. ATCC 21439 was purified as follows. […] 0.05 M sodium phosphate buffer, pH 7.0 with 0.5mM dithiothretol (buffer A) and were disrupted sonically (5×1 min.). The crude extract was separated by centrifugation. The crude extract was heat-treated at 50° C. in a water bath for 10 minutes. The resulting precipitate was removed by centrifugation. To the supernatant solution, 25 ml of protamine sulfate solution (2% solution in 0.1 M Tris base) was added dropwise with continuous stirring. After standing for 30 minutes, the extract was centrifuged. The supernatant solution was fractionated with solid ammonium sulfate. […] This DEAE-cellulose eluate was concentrated by ammonium sulfate fractionation. Material precipitating between 30 and 50% ammonium sulfate saturation was collected by centrifugation and dialyzed overnight against A. This fraction was further washed and filtered through an Amicon unit with XM 50 membrane. The concentrated fraction (6 ml) inside the Amicon unit was applied to an Affi-Gel Blue column (0.8 cm ×18 cm) which had been equilibrated with buffer A for affinity chromatography. The column was washed overnight with buffer A (0.18 ml./min.) and then was eluted with buffer A containing 5 mM NAD. Each 1 ml. fraction was collected.
(§4) The purified secondary alcohol dehydrogenase enzyme (SADH) may be used directly for converting C3 -C6 secondary alcohols to the corresponding methyl ketones by the procedures described above; however, a source of NAD^+ must be added to the reaction medium. One can determine the NAD-linked secondary alcohol dehydrogenase activity with a fluorescence spectrophotometer (Perkin Elmer, Model MPF 44A) by following the formation of reduced NAD (Ex 340 nm, Em 460 nm). The assay system (3 ml.) will typically contain: sodium phosphate buffer pH 7.0, 150 μmol; NAD 1.0 μmol; a given amount of enzyme preparation; and 20 μmol secondary alcohol. The reaction is started by the addition of secondary alcohol. One unit of SADH enzyme activity represents the reduction of one nmole NAD per minute.
The effect of metal-chelating agents and thioreagents on the activity of the purified SADH enzyme were studied. […] The possibility of ethanol or n-propanol as an inhibitor was studied.

[7] = system: secondary alcohol dehydrogenase (SADH); test: Substrate specificity and Michaelis constants of purified SADH; type: biochemical, Pseudomonas sp. ATCC 21439
Protocol: as §3, §4

[8] = inhibitor 1 mM, measured spectrofluorometrically

CC(O)CO (stereo not drawn) [1,2-propandiol]
Oxidation by the purified yeast enzyme (in words) [1]: not oxidized

c1cnc2c(c1)ccc1cccnc12 [1,10-phenanthroline]
Inhibition of conversion of C3-C6 n-alkanes to sec. alcohols (in words) [2]: inhibited | Inhibition of secondary alcohol dehydrogenase activity (in words) [3]: strongly inhibited | Inhibition of production of 2-butanone from 2-butanol [4]: inhibited | % inhibition of methane-hydroxylating activity [5]: 90% | % inhibition of propylene-epoxidizing activity [5]: 93% | % inhibition of SADH activity [6, 8]: 95%

CCCCCC(C)O (stereo not drawn) [2-heptanol]
Oxidation by the purified yeast enzyme (in words) [1]: not oxidized | Rate of oxidation of secondary alcohols to methyl ketones [4]: much slower rate

CCCCC(C)O (stereo not drawn) [2-hexanol]
Oxidation by purified SADH (in words) [7]: oxidized at a lower rate | Oxidation by the purified yeast enzyme (in words) [1]: catalyzed the oxidation | Rate of oxidation of secondary alcohols to methyl ketones [4]: much slower rate

CCCCCCC(C)O (stereo not drawn) [2-octanol]
Oxidation by the purified yeast enzyme (in words) [1]: not oxidized

CCCC(C)O (stereo not drawn) [2-pentanol]
Oxidation by purified SADH (in words) [7]: oxidized at a lower rate | Oxidation by the purified yeast enzyme (in words) [1]: catalyzed the oxidation | Rate of oxidation of secondary alcohols to methyl ketones [4]: much slower rate

O=C(O)c1cc(SSc2ccc([N+](=O)[O-])c(C(=O)O)c2)ccc1[N+](=O)[O-] [5,5'-dithiobis(2-nitrobenzoic acid)]
% inhibition of SADH activity [6, 8]: 100%

Oc1cccc2cccnc12 [8-Hydroxyquinoline]
Inhibition of conversion of C3-C6 n-alkanes to sec. alcohols (in words) [2]: inhibited | % inhibition of methane-hydroxylating activity [5]: 80% | % inhibition of propylene-epoxidizing activity [5]: 75%

[Co+2] [Co^++]
% inhibition of SADH activity [6, 8]: 0%

O=S(=O)([O-])[O-].[Cu+2] [Cupric Sulfate]
Inhibition of secondary alcohol dehydrogenase activity (in words) [3]: inhibited

c1c[nH]cn1 [Imidazole]
Inhibition of secondary alcohol dehydrogenase activity (in words) [3]: strongly inhibited

[Mg+2] [Mg^++]
% inhibition of SADH activity [6, 8]: 0%

[Mn+2] [Mn^++]
% inhibition of SADH activity [6, 8]: 0%

CCN1C(=O)C=CC1=O [N-ethylmalemide]
% inhibition of SADH activity [6, 8]: 6%

[N-]=[N+]=[N-] [Sodium azide]
% inhibition of SADH activity [6, 8]: 10%

NNC(N)=S [Thiosemicarbazide]
Inhibition of conversion of C3-C6 n-alkanes to sec. alcohols (in words) [2]: inhibited | % inhibition of methane-hydroxylating activity [5]: 100% | % inhibition of propylene-epoxidizing activity [5]: 97%

NC(N)=S [Thiourea]
Inhibition of conversion of C3-C6 n-alkanes to sec. alcohols (in words) [2]: inhibited | Inhibition of production of 2-butanone from 2-butanol [4]: not inhibited | % inhibition of methane-hydroxylating activity [5]: 98% | % inhibition of propylene-epoxidizing activity [5]: 98% | % inhibition of SADH activity [6, 8]: 0%

[Zn+2] [Zn^++]
% inhibition of SADH activity [6, 8]: 0%

CC=O [acetaldehyde]
Oxidation by purified SADH (in words) [7]: oxidized at a lower rate

O=Cc1ccccc1 [benzaldehyde]
Oxidation by purified SADH (in words) [7]: not oxidized

CCCCO [butan-1-ol]
Oxidation by the purified yeast enzyme (in words) [1]: not oxidized

CCC(O)CO (stereo not drawn) [butane 1,2-diol]
Oxidation by purified SADH (in words) [7]: not oxidized | Oxidation by the purified yeast enzyme (in words) [1]: not oxidized

CC(O)CCO (stereo not drawn) [butane 1,3-diol]
Oxidation by purified SADH (in words) [7]: oxidized at a lower rate | Oxidation by the purified yeast enzyme (in words) [1]: not oxidized

CC(O)C(C)O (stereo not drawn) [butane 2,3-diol]
Oxidation by purified SADH (in words) [7]: oxidized at a lower rate

[Cu+2] [cupric]
% inhibition of SADH activity [6, 8]: 25%

OC1CCCCC1 [cyclohexanol]
Oxidation by purified SADH (in words) [7]: oxidized at a lower rate

CCO [ethanol]
Oxidation by the purified yeast enzyme (in words) [1]: not oxidized

[Fe+3] [ferric]
% inhibition of SADH activity [6, 8]: 35%

[Fe+2] [ferrous]
% inhibition of SADH activity [6, 8]: 50%

C=O [formaldehyde]
Oxidation by purified SADH (in words) [7]: not oxidized

O=C(O)CI [iodoacetic acid]
% inhibition of SADH activity [6]: 0%

CC(C)CO [isobutanol]
Oxidation by purified SADH (in words) [7]: not oxidized

N#C[S][Hg][S]C#N [mercuric thiocyanate]
Inhibition of secondary alcohol dehydrogenase activity (in words) [3]: inhibited

CO [methanol]
Oxidation by the purified yeast enzyme (in words) [1]: not oxidized

CCCO [n-propanol]
Oxidation by the purified yeast enzyme (in words) [1]: not oxidized

[Ni+2] [nickel]
% inhibition of SADH activity [6, 8]: 20%

O=C(O)c1cc[c]([Hg+])cc1.[OH-] [p-hydroxymercuribenzoate]
Inhibition of secondary alcohol dehydrogenase activity (in words) [3]: strongly inhibited | % inhibition of SADH activity [6, 8]: 100%

CCCCCO [pentan-1-ol]
Oxidation by the purified yeast enzyme (in words) [1]: not oxidized

Oc1ccccc1 [phenol]
Oxidation by purified SADH (in words) [7]: not oxidized

CCC=O [propanal]
Oxidation by purified SADH (in words) [7]: oxidized at a lower rate

O=[N+]([O-])[O-].[Ag+] [silver nitrate]
Inhibition of secondary alcohol dehydrogenase activity (in words) [3]: inhibited

O=C(O)CCC(=O)O [succinic acid]
Oxidation by purified SADH (in words) [7]: not oxidized

c1ccc(-c2ccccn2)nc1 [α,α-bipyridyl]
Inhibition of conversion of C3-C6 n-alkanes to sec. alcohols (in words) [2]: inhibited | Inhibition of production of 2-butanone from 2-butanol [4]: inhibited | % inhibition of methane-hydroxylating activity [5]: 99% | % inhibition of propylene-epoxidizing activity [5]: 98% | % inhibition of SADH activity [6, 8]: 70%

cytochrome c: cytochrome c tested as electron carrier [reference compound]
Function as electron acceptor/carrier for the purified yeast enzyme ([1]; purified enzyme): could not act as electron carrier
